Data on 16 molecules can be found in patent publication US6777413B2, “2-[1H]-quinolone and 2-[1H]-quinoxalone inhibitors of factor Xa” (Millennium Pharmaceuticals, Inc., priority 2000, dated 2004).

As a reminder, the IC50 is the concentration that inhibits the measured activity by half. Higher therefore signals lower potency.

One assay concerns the target factor Xa (Homo sapiens, UniProt P00742). Put plainly: factor Xa amidolytic assay (XA).
The next assay addresses thrombin (Homo sapiens, UniProt P00734). The experiment in a line: thrombin amidolytic assay (IIA).
The target of another assay is T1, TRYPSIN (Bos taurus, UniProt P00760).
T1 construct: gene PRSS1
T1 sequence (P00760 24-246): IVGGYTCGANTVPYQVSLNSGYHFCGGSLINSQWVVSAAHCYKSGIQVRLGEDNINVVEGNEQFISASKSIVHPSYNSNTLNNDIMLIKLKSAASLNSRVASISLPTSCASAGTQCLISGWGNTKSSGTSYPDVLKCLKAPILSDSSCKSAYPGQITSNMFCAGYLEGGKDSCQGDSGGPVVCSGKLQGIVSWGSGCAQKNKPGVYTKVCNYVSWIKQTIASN
Put plainly: trypsin protease inhibition. The class given is biochemical.

A further assay has as its target prothrombinase complex (Homo sapiens, UniProt P00742). Put plainly: prothrombinase inhibition assay (IIASE). The class given is biochemical. As to conditions: plasma free system, Chromozym TH. The protocol: The prothrombinase inhibition assay is performed in a plasma free system with modifications to the method described by Sinha, U. et al., Thromb. […] Specifically, the activity of the prothrombinase complex is determined by measuring the time course of thrombin generation using the p-nitroanilide substrate Chromozym TH. […] Aliquots from the complex-inhibitor mixture are added to prothrombin (1 nM) and Chromozym TH (0.1 mM). […] Eight different concentrations of inhibitor are assayed in duplicate. A standard curve of thrombin generation by an equivalent amount of untreated complex is used for determination of percent inhibition.

prothrombinase complex, sequence (P00742 235-488 limits assumed): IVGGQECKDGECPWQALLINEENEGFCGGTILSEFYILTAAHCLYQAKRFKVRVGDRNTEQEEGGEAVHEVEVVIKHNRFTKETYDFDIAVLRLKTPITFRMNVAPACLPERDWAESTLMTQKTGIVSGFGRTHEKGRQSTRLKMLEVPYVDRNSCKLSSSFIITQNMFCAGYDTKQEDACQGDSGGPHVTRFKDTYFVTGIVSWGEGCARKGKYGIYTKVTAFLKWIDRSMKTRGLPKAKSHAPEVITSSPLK
prothrombinase complex, sequence (P00742 41-179 limits assumed): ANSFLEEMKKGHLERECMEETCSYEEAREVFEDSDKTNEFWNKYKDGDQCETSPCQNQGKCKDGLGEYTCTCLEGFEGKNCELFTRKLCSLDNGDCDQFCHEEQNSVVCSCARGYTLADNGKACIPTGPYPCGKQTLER
prothrombinase complex, sequence (P12259 29-737 partner limits assumed): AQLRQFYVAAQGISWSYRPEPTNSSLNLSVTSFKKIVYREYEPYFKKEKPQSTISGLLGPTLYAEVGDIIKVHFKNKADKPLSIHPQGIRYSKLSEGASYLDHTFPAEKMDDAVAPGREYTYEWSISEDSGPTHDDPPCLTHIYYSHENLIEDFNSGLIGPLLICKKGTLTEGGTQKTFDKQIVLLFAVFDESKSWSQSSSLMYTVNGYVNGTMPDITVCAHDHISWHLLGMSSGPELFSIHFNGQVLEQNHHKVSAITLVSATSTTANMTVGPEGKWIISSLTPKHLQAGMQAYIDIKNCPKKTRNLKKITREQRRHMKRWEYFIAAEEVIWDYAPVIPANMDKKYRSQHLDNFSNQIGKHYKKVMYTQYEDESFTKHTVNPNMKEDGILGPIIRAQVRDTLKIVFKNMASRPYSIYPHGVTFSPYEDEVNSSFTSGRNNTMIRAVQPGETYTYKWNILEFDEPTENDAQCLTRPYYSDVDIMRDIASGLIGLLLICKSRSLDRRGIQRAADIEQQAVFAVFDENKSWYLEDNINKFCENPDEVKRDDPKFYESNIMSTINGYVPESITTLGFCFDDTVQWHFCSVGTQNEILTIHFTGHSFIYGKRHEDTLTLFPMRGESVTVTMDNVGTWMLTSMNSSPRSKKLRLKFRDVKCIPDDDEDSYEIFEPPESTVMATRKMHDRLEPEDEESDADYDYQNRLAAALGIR
prothrombinase complex, sequence (P12259 1574-2224 partner limits assumed): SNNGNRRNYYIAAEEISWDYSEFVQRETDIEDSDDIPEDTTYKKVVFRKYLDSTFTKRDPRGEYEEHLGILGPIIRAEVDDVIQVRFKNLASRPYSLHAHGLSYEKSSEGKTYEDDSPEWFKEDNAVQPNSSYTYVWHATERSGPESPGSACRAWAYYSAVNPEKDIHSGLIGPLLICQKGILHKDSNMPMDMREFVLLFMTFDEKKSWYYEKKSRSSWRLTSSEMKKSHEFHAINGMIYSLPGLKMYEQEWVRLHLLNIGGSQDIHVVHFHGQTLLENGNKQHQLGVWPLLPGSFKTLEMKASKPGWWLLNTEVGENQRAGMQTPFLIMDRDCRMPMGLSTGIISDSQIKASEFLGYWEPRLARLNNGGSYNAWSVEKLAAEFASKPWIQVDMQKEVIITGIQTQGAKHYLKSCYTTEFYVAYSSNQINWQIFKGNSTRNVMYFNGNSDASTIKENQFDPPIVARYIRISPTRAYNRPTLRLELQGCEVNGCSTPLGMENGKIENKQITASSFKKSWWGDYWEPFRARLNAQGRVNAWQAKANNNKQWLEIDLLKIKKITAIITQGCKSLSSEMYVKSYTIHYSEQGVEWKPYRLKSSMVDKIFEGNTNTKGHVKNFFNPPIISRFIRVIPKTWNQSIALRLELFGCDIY
factor Xa, sequence (P00742 235-488 limits assumed): as the sequence (P00742 235-488 limits assumed) above
factor Xa, sequence (P00742 41-179 limits assumed): as the sequence (P00742 41-179 limits assumed) above
Protocol for factor Xa: In the assays for thrombin, prothrombinase and factor Xa, a synthetic chromogenic substrate is added to a solution containing test compound and the enzyme of interest and the residual catalytic activity of that enzyme is determined spectrophotometrically. The IC50 of a compound is determined from the substrate turnover. […] The factor Xa and thrombin assays are performed at room temperature, in 0.02 M Tris·HCl buffer, pH 7.5, containing 0.15 M NaCl.

As for `N=C(N)c1ccc2ccc(Cn3c(=O)ccc4cc(OC5CCN(c6ncccn6)CC5)ccc43)cc2c1` [Example 18], the 50% inhibitory concentration (IC50) is 580 nM against factor Xa, 75000 nM at thrombin, 656 nM against TRYPSIN and 3250 nM at prothrombinase complex.
With `CCn1c(Cn2c(=O)ccc3cc(OC4CCN(C(C)=N)CC4)ccc32)cc2ccc(C(=N)NN)cc21` [Example 17], the IC50 on factor Xa worked out at 514 nM; against thrombin, 11000 nM; on TRYPSIN, 832 nM; against prothrombinase complex, 1210 nM.
Taken in the same sequence, the figures for `CC(=N)N1CCC(Oc2ccc3c(ccc(=O)n3Cc3ccccc3-c3ccc(C(=N)N)cc3)c2)CC1` [Example 10] were 137000 nM, 995 nM, 52500 nM and 1200 nM.
Taken in the same sequence, the figures for `N=C(N)c1ccc2ccc(Cn3c(=O)ccc4cc(OC5CCNCC5)ccc43)cc2c1` [Example 1] were 151 nM, 122000 nM, 77.2 nM and 9110 nM.
For `N=C(N)c1ccc(-c2ccccc2Cn2c(=O)ccc3cc(OC4CCNCC4)ccc32)cc1` [Example 8] the same measures were 501000 nM, 1700 nM, 56600 nM and 1920 nM.
For `CC(=N)N1CCC(Oc2ccc3c(ccc(=O)n3Cc3ccc(-c4cccc(C(=N)N)c4)cc3)c2)CC1` [Example 7], the IC50 on factor Xa was determined as 82.3 nM; against thrombin it was 45000 nM; against TRYPSIN, 4290 nM; at prothrombinase complex, 362 nM.
With `CC(=N)N1CCC(Oc2ccc3c(ccc(=O)n3Cc3ccccc3-c3cccc(C(=N)N)c3)c2)CC1` [Example 9], the IC50 against factor Xa came to 2550 nM; on TRYPSIN it was 847 nM; on prothrombinase complex, 697 nM.
In the case of `N=C(N)c1cccc(-c2ccc(Cn3c(=O)ccc4cc(OC5CCNCC5)ccc43)cc2)c1` [Example 6], the IC50 on factor Xa was 4940 nM; at thrombin it was 58800 nM; against TRYPSIN, 3630 nM; against prothrombinase complex it was 38200 nM.
For `N=C(N)c1cccc(-c2cccc(Cn3c(=O)ccc4cc(OC5CCNCC5)ccc43)c2)c1` [Example 5] the same measures were 1570 nM, 6590 nM, 263 nM and 46300 nM.
For `CC(=N)N1CCC(Oc2ccc3c(ccc(=O)n3Cc3cccc(-c4cccc(C(=N)N)c4)c3)c2)CC1` [Example 4] the same measures were 11.8 nM, 4560 nM, 47.7 nM and 157 nM.
For the molecule `CN1CCC(Oc2ccc3c(ccc(=O)n3Cc3ccc4ccc(C(=N)N)cc4c3)c2)CC1` [Example 16], the IC50 against factor Xa came to 209 nM; at thrombin, 399000 nM; against TRYPSIN, 315 nM; at prothrombinase complex, 2580 nM.
For `CC(=N)N1CCC(Oc2ccc3c(ccc(=O)n3Cc3cccc(-c4ccc(C(=N)N)cc4)c3)c2)CC1` [Example 15], the IC50 is 18800 nM against factor Xa, 30400 nM against thrombin, 3370 nM against TRYPSIN and 33500 nM on prothrombinase complex.
For `CCn1c(Cn2c(=O)ccc3cc(OC4CCN(C(C)=N)CC4)ccc32)cc2ccc(C(=N)N)cc21` [Example 14] the same measures were 4.74 nM, 69.3 nM, 10.4 nM and 14.3 nM.
For `N=C(N)c1ccc(-c2ccc(Cn3c(=O)ccc4cc(OC5CCNCC5)ccc43)cc2)cc1` [Example 12] the same measures were 70000 nM, 9130 nM, 4410 nM and 15500 nM.
For `CC(=N)N1CCC(Oc2ccc3c(ccc(=O)n3Cc3ccc(-c4ccc(C(=N)N)cc4)cc3)c2)CC1` [Example 13] the same measures were 50000 nM, 3000 nM, 1910 nM and 8630 nM.
Consider `N=C(N)c1cccc(-c2ccccc2Cn2c(=O)ccc3cc(OC4CCNCC4)ccc32)c1` [Example 11], for which the IC50 stood at 41900 nM at factor Xa, 2480 nM against thrombin, 289 nM against TRYPSIN and 2180 nM on prothrombinase complex.
